Results taken from the supplement of paper PMC10627819.

Assays:
S. aureus Newman [1] = assay: fitness (endpoint OD595 vs no drug) (fraction); higher = more growth
Procedure, shortened: (§1)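 Growth medium was TSB, LB Lennox or CY, and plates were kept at 37 °C. Inoculation was at OD595 0.01 in 384-well plates, at 30 µl per well or 55 µl for S. pneumoniae. OD595 was monitored every 30 min for 14 h and background-subtracted using the first reading. Fitness is the optical density on entering stationary phase divided by the robust mean of no-drug controls, with values capped at 1.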

S. pneumoniae D39V [2] = assay: as above
Procedure, shortened: as §1

B. subtilis 168 = assay: Bliss interaction score (quartile over a dose matrix) (fitness difference); higher = more antagonism (negative = synergy)
Procedure, shortened: (§2)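 Quartiles of the Bliss score were taken over technical, biological and donor/recipient replicates. That score is observed fitness minus the product of the single-drug fitness values, which were inferred from combination data. Fitness itself is OD595 at entry into stationary phase divided by the plate's robust no-drug mean, with a cap at 1.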

S. aureus DSM 20231 = assay: as above
Procedure, shortened: as §2

S. aureus Newman [3] = assay: as above
Procedure, shortened: as §2

S. pneumoniae D39V [4] = assay: as above
Procedure, shortened: as §2
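Wherever Bliss interaction score (quartile over a dose matrix) is given: first quartile when negative (synergy) and third quartile when positive (antagonism).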

CO/N=C(\C(=O)N[C@@H]1C(=O)N2C(C(=O)[O-])=C(C[N+]3(C)CCCC3)CS[C@H]12)c1csc(N)n1 [Cefepime] + CC(C1CCC(C(O1)OC2C(CC(C(C2O)OC3C(C(C(CO3)(C)O)NC)O)N)N)N)NC [Gentamicin]
main component drawn
Settings | fitness
S. aureus Newman [1], first compound 0.125 µg/mL, partner 0.375 µg/mL | 0.954
S. aureus Newman [1], first compound 0.125 µg/mL, partner 0.5 µg/mL | 0.871
S. aureus Newman [1], first compound 0.125 µg/mL, partner 0.75 µg/mL | 0.94
S. aureus Newman [1], first compound 0.125 µg/mL, partner 1 µg/mL | ≥ 1
S. aureus Newman [1], first compound 0.125 µg/mL, partner 1.5 µg/mL | 0.916
S. aureus Newman [1], first compound 0.125 µg/mL, partner 2 µg/mL | ≥ 1
S. aureus Newman [1], first compound 0.25 µg/mL, partner 0.375 µg/mL | 0.857
S. aureus Newman [1], first compound 0.25 µg/mL, partner 0.5 µg/mL | 0.816
S. aureus Newman [1], first compound 0.25 µg/mL, partner 0.75 µg/mL | 0.837
S. aureus Newman [1], first compound 0.25 µg/mL, partner 1 µg/mL | 0.906
S. aureus Newman [1], first compound 0.25 µg/mL, partner 1.5 µg/mL | 0.787
S. aureus Newman [1], first compound 0.25 µg/mL, partner 2 µg/mL | 0.966
S. aureus Newman [1], first compound 0.5 µg/mL, partner 0.375 µg/mL | 0.799
S. aureus Newman [1], first compound 0.5 µg/mL, partner 0.5 µg/mL | 0.757
S. aureus Newman [1], first compound 0.5 µg/mL, partner 0.75 µg/mL | 0.818
S. aureus Newman [1], first compound 0.5 µg/mL, partner 1 µg/mL | 0.804
S. aureus Newman [1], first compound 0.5 µg/mL, partner 1.5 µg/mL | 0.744
S. aureus Newman [1], first compound 0.5 µg/mL, partner 2 µg/mL | 0.87
S. pneumoniae D39V [2], first compound 0.007 µg/mL, partner 2 µg/mL | 0.994
S. pneumoniae D39V [2], first compound 0.007 µg/mL, partner 4 µg/mL | 0.996
S. pneumoniae D39V [2], first compound 0.007 µg/mL, partner 8 µg/mL | 0.97
S. pneumoniae D39V [2], first compound 0.0078 µg/mL, partner 2 µg/mL | 1
S. pneumoniae D39V [2], first compound 0.0078 µg/mL, partner 4 µg/mL | ≥ 1
S. pneumoniae D39V [2], first compound 0.0078 µg/mL, partner 8 µg/mL | 0.972
S. pneumoniae D39V [2], first compound 0.014 µg/mL, partner 2 µg/mL | ≥ 1
S. pneumoniae D39V [2], first compound 0.014 µg/mL, partner 4 µg/mL | 0.99
S. pneumoniae D39V [2], first compound 0.014 µg/mL, partner 8 µg/mL | ≥ 1
S. pneumoniae D39V [2], first compound 0.0155 µg/mL, partner 2 µg/mL | 0.964
S. pneumoniae D39V [2], first compound 0.0155 µg/mL, partner 4 µg/mL | 0.974
S. pneumoniae D39V [2], first compound 0.0155 µg/mL, partner 8 µg/mL | 0.971
S. pneumoniae D39V [2], first compound 0.028 µg/mL, partner 2 µg/mL | 0.926
S. pneumoniae D39V [2], first compound 0.028 µg/mL, partner 4 µg/mL | 0.932
S. pneumoniae D39V [2], first compound 0.028 µg/mL, partner 8 µg/mL | 0.885
S. pneumoniae D39V [2], first compound 0.031 µg/mL, partner 2 µg/mL | 0.493
S. pneumoniae D39V [2], first compound 0.031 µg/mL, partner 8 µg/mL | 0.439

main component drawn
Settings | Bliss interaction score
B. subtilis 168 | -0.134
S. aureus DSM 20231 | 0.0966
S. aureus Newman [3] | -0.0492
S. pneumoniae D39V [4] | 0.0531

CO/N=C(\C(=O)N[C@@H]1C(=O)N2C(C(=O)[O-])=C(C[N+]3(C)CCCC3)CS[C@H]12)c1csc(N)n1 [Cefepime] + CN(C)c1cc(NC(=O)CNC(C)(C)C)c(O)c2c1C[C@H]1C[C@H]3[C@H](N(C)C)C(O)=C(C(N)=O)C(=O)[C@@]3(O)C(O)=C1C2=O [Tigecycline]
Settings | fitness
S. aureus Newman [1], first compound 0.125 µg/mL, partner 0.039 µg/mL | 0.905
S. aureus Newman [1], first compound 0.125 µg/mL, partner 0.078 µg/mL | 0.92
S. aureus Newman [1], first compound 0.125 µg/mL, partner 0.156 µg/mL | 0.882
S. aureus Newman [1], first compound 0.25 µg/mL, partner 0.039 µg/mL | 0.837
S. aureus Newman [1], first compound 0.25 µg/mL, partner 0.078 µg/mL | 0.838
S. aureus Newman [1], first compound 0.25 µg/mL, partner 0.156 µg/mL | 0.862
S. aureus Newman [1], first compound 0.5 µg/mL, partner 0.039 µg/mL | 0.72
S. aureus Newman [1], first compound 0.5 µg/mL, partner 0.078 µg/mL | 0.763
S. aureus Newman [1], first compound 0.5 µg/mL, partner 0.156 µg/mL | 0.798
S. pneumoniae D39V [2], first compound 0.007 µg/mL, partner 0.325 µg/mL | 0.996
S. pneumoniae D39V [2], first compound 0.007 µg/mL, partner 0.65 µg/mL | 0.964
S. pneumoniae D39V [2], first compound 0.007 µg/mL, partner 1.3 µg/mL | 0.955
S. pneumoniae D39V [2], first compound 0.0078 µg/mL, partner 0.65 µg/mL | 0.963
S. pneumoniae D39V [2], first compound 0.0078 µg/mL, partner 1.3 µg/mL | 0.943
S. pneumoniae D39V [2], first compound 0.0078 µg/mL, partner 2.6 µg/mL | 0.918
S. pneumoniae D39V [2], first compound 0.014 µg/mL, partner 0.325 µg/mL | ≥ 1
S. pneumoniae D39V [2], first compound 0.014 µg/mL, partner 0.65 µg/mL | 0.983
S. pneumoniae D39V [2], first compound 0.014 µg/mL, partner 1.3 µg/mL | 0.99
S. pneumoniae D39V [2], first compound 0.0155 µg/mL, partner 0.65 µg/mL | 0.91
S. pneumoniae D39V [2], first compound 0.0155 µg/mL, partner 1.3 µg/mL | 0.935
S. pneumoniae D39V [2], first compound 0.0155 µg/mL, partner 2.6 µg/mL | 0.883
S. pneumoniae D39V [2], first compound 0.028 µg/mL, partner 0.325 µg/mL | 0.951
S. pneumoniae D39V [2], first compound 0.028 µg/mL, partner 0.65 µg/mL | 0.877
S. pneumoniae D39V [2], first compound 0.028 µg/mL, partner 1.3 µg/mL | 0.865
S. pneumoniae D39V [2], first compound 0.031 µg/mL, partner 0.65 µg/mL | 0.543
S. pneumoniae D39V [2], first compound 0.031 µg/mL, partner 1.3 µg/mL | 0.698
S. pneumoniae D39V [2], first compound 0.031 µg/mL, partner 2.6 µg/mL | 0.684

Settings | Bliss interaction score
B. subtilis 168 | 0.115
S. aureus DSM 20231 | 0.0417
S. aureus Newman [3] | -0.0743
S. pneumoniae D39V [4] | 0.0368

CO/N=C(\C(=O)N[C@@H]1C(=O)N2C(C(=O)[O-])=C(C[N+]3(C)CCCC3)CS[C@H]12)c1csc(N)n1 [Cefepime] + CN[C@@H]1[C@H](O[C@H]2[C@H](O[C@H]3[C@H](O)[C@@H](O)[C@H](N=C(N)N)[C@@H](O)[C@@H]3N=C(N)N)O[C@@H](C)[C@]2(O)C=O)O[C@@H](CO)[C@H](O)[C@H]1O [Streptomycin]
fitness
Settings | partner 1 µg/mL | partner 2 µg/mL | partner 4 µg/mL | partner 8 µg/mL
S. aureus Newman [1], first compound 0.125 µg/mL | 0.939 | 0.882 | – | –
S. aureus Newman [1], first compound 0.25 µg/mL | 0.865 | 0.848 | – | –
S. aureus Newman [1], first compound 0.5 µg/mL | 0.765 | 0.773 | – | –
S. pneumoniae D39V [2], first compound 0.007 µg/mL | – | 0.949 | 0.945 | 0.965
S. pneumoniae D39V [2], first compound 0.0078 µg/mL | – | – | ≥ 1 | 0.903
S. pneumoniae D39V [2], first compound 0.014 µg/mL | – | 0.971 | 0.954 | 0.984
S. pneumoniae D39V [2], first compound 0.0155 µg/mL | – | – | 0.984 | 0.889
S. pneumoniae D39V [2], first compound 0.028 µg/mL | – | 0.864 | 0.874 | 0.912
S. pneumoniae D39V [2], first compound 0.031 µg/mL | – | – | 0.475 | 0.538

fitness, S. pneumoniae D39V [2], one replicate
Settings | first compound 0.0078 µg/mL | first compound 0.0155 µg/mL | first compound 0.031 µg/mL
partner 2 µg/mL | ≥ 1 | 0.977 | 0.468
partner 16 µg/mL | 0.883 | 0.863 | 0.481

Settings | Bliss interaction score
B. subtilis 168 | -0.159
S. aureus DSM 20231 | 0.0906
S. aureus Newman [3] | 0.0474
S. pneumoniae D39V [4] | 0.0613

CCCCCCCCCC(=O)N[C@@H](Cc1c[nH]c2ccccc12)C(=O)N[C@H](CC(N)=O)C(=O)N[C@@H](CC(=O)O)C(=O)N[C@@H]1C(=O)NCC(=O)N[C@@H](CCCN)C(=O)N[C@@H](CC(=O)O)C(=O)N[C@H](C)C(=O)N[C@@H](CC(=O)O)C(=O)NCC(=O)N[C@H](CO)C(=O)N[C@@H]([C@H](C)CC(=O)O)C(=O)N[C@@H](CC(=O)c2ccccc2N)C(=O)O[C@@H]1C [Daptomycin] + C/C(=C\C(=O)OCCCCCCCCC(=O)O)C[C@@H]1OC[C@H](C[C@@H]2O[C@H]2[C@@H](C)[C@H](C)O)[C@@H](O)[C@H]1O [Pseudomonic acid]
fitness, S. aureus Newman [1], one replicate
Settings | first compound 0.125 µg/mL | first compound 0.25 µg/mL | first compound 0.5 µg/mL
partner 0.0313 µg/mL | 0.0598 | 0.0545 | 0.0362
partner 0.0625 µg/mL | 0.0219 | 0.0175 | 0.0123
partner 0.125 µg/mL | 0.0444 | 0.0303 | 0.0061

fitness, S. pneumoniae D39V [2]
Settings | first compound 1 µg/mL | first compound 2 µg/mL | first compound 4 µg/mL
partner 0.03 µg/mL | 0.895 | 0.904 | 0.893
partner 0.06 µg/mL | 0.679 | 0.765 | 0.736
partner 0.12 µg/mL | 0.324 | 0.407 | 0.408

Settings | Bliss interaction score
B. subtilis 168 | 0.058
S. aureus DSM 20231 | -0.0135
S. aureus Newman [3] | -0.0312
S. pneumoniae D39V [4] | -0.101
